From publication PMC3961230, “Theoretical and Experimental Studies of New Modified Isoflavonoids as Potential Inhibitors of Topoisomerase I from Plasmodium falciparum” (PLoS ONE, 2014)
≈ marks a conversion by molar mass, not a printed value. Like-named read-outs stand apart in the source and are kept apart here.

Key:
[1] = system: P. falciparum CQ-resistant (W2 clone); experiment: anti-HRPII test, P. falciparum blood parasites, CQ-resistant W2 clone; format: cell-based; conditions: Plasmodium falciparum
Excerpt: (§1) A CQ-resistant and mefloquine-sensitive P. falciparum, clone W2 [27] and a CQ-sensitive strain 3D7, were cultivated as described, in human erythrocytes (A^+), in complete medium (RPMI 1640 supplemented with 10% human sera blood group A^+) and tests followed a protocol slightly modified as follows. Human erythrocytes (A^+) and serum blood group A^+ were kindly donated by Center of Hemotherapy and Hemathology of Minas Gerais (HEMOMINAS - http://www.hemominas.mg.gov.br), under the mutual cooperation term number 18/09.
(§2) The ring-stage parasites sorbitol-synchronized were adjusted for parasitemia and hematocrit, according to the specifications for the test, then distributed in 96-well microtiter plates (Corning, Santa Clara, CA, EUA), previously prepared and containing the diluted compounds in dimethyl sulfoxide (DMSO) (0.02%) aqueous stock solution, in triplicates for each dose. CQ, the standard antimalarial, was tested in parallel each time. The drug activity was determined in relation to parasite cultures in complete medium and no drugs, as described. Parasite growth was measured through the anti-HRPII test in cultures adjusted to 1.5% hematocrit and 0.05% parasitemia, with monoclonal antibodies (MPFM-55A and MPFG-55P) commercially acquired (ICLLAB®, USA) and the TMB chromogen (3,3′,5,5′-Tetramethylbenzidine) from KPL (Gaithersburg, MD, EUA). The reaction was stopped with […] of 1 M sulfuric acid, absorbance read at 450 nm in a spectrophotometer (SpectraMax340PC384, Molecular Devices). Sigmoid dose-response curves were generated with curve-fitting software (Microcal Origin Software 5.0, Inc.), used to determine the 50% inhibitory concentration of the parasite growth (IC50), and activity calculated by comparing growth in drug-exposed cultures and the drug-free control cultures.

[2] = system: normal kidney glomerular cells from green monkey (BGM); experiment: Cytotoxicity test (MTT) against BGM cells; format: cell-based; conditions: for MDL50 (µg/mL) Mean ± SD: 24 h
Procedure: The cytotoxicity tests were performed against normal kidney glomerular cells from green monkey (BGM) as follows. The cells were cultured under a 5% CO2 atmosphere, at 37°C, in 75 cm^2 sterile flasks in RPMI 1640 medium supplemented with 10% heat-inactivated fetal calf serum, and 40 mg/L gentamicin. When confluent, the cell monolayer was washed with culture medium, trypsinized, distributed in flat-bottomed 96-well plates (5×10^3 cells/well), and incubated for 18 h at 37°C for cell adherence. The compounds (20 µL) were added to the cell plates, at various concentrations (1000 to1 µg/mL), incubated for 24 h, then received a solution of MTT [3-(4,5-dimethylthiazol-2-yl)-2,5-diphenyltetrazolium bromide] (5 mg/mL; 20 µL/well), followed by another 3 h incubation, to evaluate mitochondrial viability. The supernatants were removed, DMSO added to each well (100 µL), carefully mixed to solubilize the formazan crystals. The optical density was determined at 570 and 630 nm (background) (SpectraMax340PC384, Molecular Devices). Cell viability was expressed as the percentage of the control absorbance in the untreated cells after subtracting the appropriate background. The minimum lethal dose for 50% of the cells (MLD50) was determined and the selectivity index (SI) calculated as the ratio between cytotoxicity and activity.

[3] = system: P. falciparum CQ-sensitive (3D7 strain); experiment: anti-HRPII test, P. falciparum blood parasites, CQ-sensitive 3D7 strain; format: cell-based; conditions: Plasmodium falciparum
Excerpt: as §1, §2

[4] = system: P. berghei CQ-sensitive (NK65); experiment: Antimalarial suppressive test against P. berghei in mice; format: in vivo, P. berghei in Swiss mice; conditions: for % Reduction of parasitemia, 5th day, Exp.1 / Mean Parasitemia ± SD, 5th day, Exp.1 / % Reduction of parasitemia, 7th day, Exp.1 / Mean Parasitemia ± SD, 7th day, Exp.1 / % Reduction of parasitemia, 5th day, Exp.2 / Mean Parasitemia ± SD, 5th day, Exp.2 / % Reduction of parasitemia, 7th day, Exp.2 / Mean Parasitemia ± SD, 7th day, Exp.2: oral, 3 days; for % Reduction of parasitemia, 5th day, Exp.1 / Mean Parasitemia ± SD, 5th day, Exp.1 / % Reduction of parasitemia, 7th day, Exp.1 / Mean Parasitemia ± SD, 7th day, Exp.1: chloroquine 5 mg/kg, LQB223 100 mg/kg; for % Reduction of parasitemia, 5th day, Exp.1 / % Reduction of parasitemia, 5th day, Exp.2: day 5; for % Reduction of parasitemia, 5th day, Exp.1 / % Reduction of parasitemia, 7th day, Exp.1 / % Reduction of parasitemia, 5th day, Exp.2 / % Reduction of parasitemia, 7th day, Exp.2: versus non-treated mice; for Mean Parasitemia ± SD, 5th day, Exp.1 / Mean Parasitemia ± SD, 5th day, Exp.2: day 5 of infection; for % Reduction of parasitemia, 7th day, Exp.1 / % Reduction of parasitemia, 7th day, Exp.2: day 7; for Mean Parasitemia ± SD, 7th day, Exp.1 / Mean Parasitemia ± SD, 7th day, Exp.2: day 7 of infection; for % Reduction of parasitemia, 5th day, Exp.2 / Mean Parasitemia ± SD, 5th day, Exp.2 / % Reduction of parasitemia, 7th day, Exp.2 / Mean Parasitemia ± SD, 7th day, Exp.2: chloroquine 15 mg/kg, LQB223 50 mg/kg
Procedure: The antimalarial suppressive test in mice, as previously described, was slightly modified. Briefly, Swiss outbred adult female mice, 20±2 g weight, were inoculated with P. berghei CQ-sensitive (NK65) by intraperitoneal route, 1×10^5 freshly infected red blood cells (iRBC) per animal. Two to 24 h later, the mice were randomly distributed to be submitted to drug treatment by oral route, during three consecutive days, once a day; two control groups were used, one non treated and another treated with CQ (either 5 or 15 mg/kg).
The molecule LQB223, freshly diluted with 3% DMSO in water immediately before treatment, was given by gavage, in doses of 100 and 50 mg/kg in 200 µL volume per animal. Blood smears were prepared at days fifth and seventh after parasite inoculation, methanol-fixed, stained with Giemsa, and examined microscopically for parasitemia determination. […] Molecules reducing parasitemia by 30% or more were considered active.

[5] = system: P. falciparum CQ-resistant (W2 clone); conditions: ref [9], [10]; cited from earlier work
[6] = system: P. falciparum CQ-sensitive (3D7 strain); conditions: ref [9], [10]; cited from earlier work
[7] = CQ-resistant W2, anti-HRPII test, three experiments, ≤10 active, 11–20 partially active, >20 inactive, read-out: IC50 (µg/mL) Mean ± SD, W2
[8] = CQ-sensitive 3D7, anti-HRPII test, three experiments, ≤10 active, 11–20 partially active, >20 inactive, read-out: IC50 (µg/mL) Mean ± SD, 3D7
[9] = BGM monkey kidney cells, MTT, minimal lethal dose for 50% of cells
[10] = W2, CQ-resistant P. falciparum, single curve printed in the picture, read-out: IC50 from dose response curve (Figure 3)

In the case of `O=C1C2=C(C(=O)c3ccccc31)[C@H]1Oc3ccccc3[C@H]1CO2` (relative stereo) [LQB118], the IC50 [1, 7] is reported as 0.17 ± 0.1 µg/mL (≈ 0.559 µM), the “toxicity to BGM cells” value [2] is reported as “toxic to BGM cells” and the “MDL50 (µg/mL) Mean ± SD” value ([2]; green monkey) is reported as ≤3.9 µg/mL. The IC50 [3, 8] was 0.16 ± 0.03 µg/mL (≈ 0.526 µM).

For `Cc1ccc(S(=O)(=O)N2c3ccccc3[C@H]3COC4=C(C(=O)c5ccccc5C4=O)[C@H]32)cc1` (relative stereo) [LQB192], the IC50 [1, 7] was 2.9 ± 2.5 µg/mL (≈ 6.34 µM), the “toxicity to BGM cells” value ([2]; BGM cells) was “toxic to BGM cells” and the “MDL50 (µg/mL) Mean ± SD” value [2, 9] was 68.7 ± 8.4 µg/mL. The IC50 [3, 8] was 3.8 ± 1 µg/mL (≈ 8.31 µM).

For `COc1ccc2c(c1)O[C@@H]1C3=C(OC[C@H]21)C(=O)c1ccccc1C3=O` (relative stereo) [LQB216], the IC50 [1, 10] was 0.23 µg/mL (≈ 0.688 µM), the IC50 [1, 7] was 0.4 ± 0.2 µg/mL (≈ 1.2 µM) and the “MDL50 (µg/mL) Mean ± SD” value [2, 9] was 24.2 ± 3 µg/mL. It also gave an IC50 [3, 8] of 0.21 ± 0.09 µg/mL (≈ 0.628 µM).

For `COC(=O)c1ccc2c(c1)[C@H]1COC3=C(C(=O)c4ccccc4C3=O)[C@H]1O2` (relative stereo) [LQB221], the IC50 [1, 7] was 0.63 ± 0.8 µg/mL (≈ 1.74 µM), the “toxicity to BGM cells” value ([2]; BGM cells) was “toxic to BGM cells” and the “MDL50 (µg/mL) Mean ± SD” value [2, 9] was 5.1 µg/mL. The IC50 [3, 8] was 0.25 ± 0.1 µg/mL (≈ 0.69 µM).

With `COc1cc(C=O)cc2c1O[C@@H]1C3=C(OC[C@H]21)C(=O)c1ccccc1C3=O` (relative stereo) [LQB222] the IC50 [1, 7] was 1.8 ± 1.6 µg/mL (≈ 4.97 µM), the “toxicity to BGM cells” value ([2]; BGM cells) was “toxic to BGM cells” and the “MDL50 (µg/mL) Mean ± SD” value [2, 9] was ≤3.9 µg/mL. It also gave an IC50 [3, 8] of 3.5 ± 0.4 µg/mL (≈ 9.66 µM).

With `Cc1ccc(S(=O)(=O)N2c3ccccc3[C@H]3CCc4ccccc4[C@H]32)cc1` (relative stereo) [LQB223] the IC50 [1, 10] was 12.4 µg/mL (≈ 33 µM), the IC50 [1, 7] was 10.2 ± 1.2 µg/mL (≈ 27.2 µM) and the “MDL50 (µg/mL) Mean ± SD” value [2, 9] was ≥1000 µg/mL. For the same compound, the “% Reduction of parasitemia, 5th day, Exp.1” value [4] was 67%, the “Mean Parasitemia ± SD, 5th day, Exp.1” value [4] was 0.15±0.2 and the “% Reduction of parasitemia, 7th day, Exp.1” value [4] was 28%. For the same compound, the “Mean Parasitemia ± SD, 7th day, Exp.1” value [4] was 11±3, the “% Reduction of parasitemia, 5th day, Exp.2” value [4] was 30% and the “Mean Parasitemia ± SD, 5th day, Exp.2” value [4] was 1.2±0.5. The “% Reduction of parasitemia, 7th day, Exp.2” value [4] was 13%, the “Mean Parasitemia ± SD, 7th day, Exp.2” value [4] was 18.3±1.5 and the “antimalarial activity in vivo” value ([4]; mice infected with P. berghei) was “active in vivo”. The IC50 [3, 8] was 7.8 ± 3 µg/mL (≈ 20.8 µM).

For `CCN(CC)CCCC(C)Nc1ccnc2cc(Cl)ccc12` (stereo not drawn) [Chloroquine, chloroquine, reference compound], the IC50 ([1]; W2, read-out: IC50 (µg/mL) Mean ± SD, W2) was 0.138 µg/mL (≈ 0.431 µM), the “% Reduction of parasitemia, 5th day, Exp.1” value [4] was 100% and the “Mean Parasitemia ± SD, 5th day, Exp.1” value [4] was 0. For the same compound, the “% Reduction of parasitemia, 7th day, Exp.1” value [4] was 52%, the “Mean Parasitemia ± SD, 7th day, Exp.1” value [4] was 7.3±3 and the “% Reduction of parasitemia, 5th day, Exp.2” value [4] was 100%. For the same compound, the “Mean Parasitemia ± SD, 5th day, Exp.2” value [4] was 0±0.0, the “% Reduction of parasitemia, 7th day, Exp.2” value [4] was 100% and the “Mean Parasitemia ± SD, 7th day, Exp.2” value [4] was 0±0.0. The “IC50, W2 clone, previous work” value [5] was 0.07 µg/mL (≈ 0.219 µM), the “IC50, 3D7 strain, previous work” value [6] was 0.0035 µg/mL (≈ 0.0109 µM) and the IC50 ([3]; 3D7, read-out: IC50 (µg/mL) Mean ± SD, 3D7) was 0.03 µg/mL (≈ 0.0938 µM).
